Structures can show the parent of a compound that is named as a salt. Where two headings read alike, the source gives them in different places. A value given as a limit tells only on which side of the number the result lay.

The values that follow come from patent US10722514B2 (FLX Bio, Inc., priority 2017, dated 2020).

For this assay, the target named is T1, recombinant full-length USP7 (Homo sapiens, UniProt Q93009).
T1 construct: A 25 μl reaction volume containing recombinant full-length USP7 (62 pM)
T1 sequence (Q93009 whole entry): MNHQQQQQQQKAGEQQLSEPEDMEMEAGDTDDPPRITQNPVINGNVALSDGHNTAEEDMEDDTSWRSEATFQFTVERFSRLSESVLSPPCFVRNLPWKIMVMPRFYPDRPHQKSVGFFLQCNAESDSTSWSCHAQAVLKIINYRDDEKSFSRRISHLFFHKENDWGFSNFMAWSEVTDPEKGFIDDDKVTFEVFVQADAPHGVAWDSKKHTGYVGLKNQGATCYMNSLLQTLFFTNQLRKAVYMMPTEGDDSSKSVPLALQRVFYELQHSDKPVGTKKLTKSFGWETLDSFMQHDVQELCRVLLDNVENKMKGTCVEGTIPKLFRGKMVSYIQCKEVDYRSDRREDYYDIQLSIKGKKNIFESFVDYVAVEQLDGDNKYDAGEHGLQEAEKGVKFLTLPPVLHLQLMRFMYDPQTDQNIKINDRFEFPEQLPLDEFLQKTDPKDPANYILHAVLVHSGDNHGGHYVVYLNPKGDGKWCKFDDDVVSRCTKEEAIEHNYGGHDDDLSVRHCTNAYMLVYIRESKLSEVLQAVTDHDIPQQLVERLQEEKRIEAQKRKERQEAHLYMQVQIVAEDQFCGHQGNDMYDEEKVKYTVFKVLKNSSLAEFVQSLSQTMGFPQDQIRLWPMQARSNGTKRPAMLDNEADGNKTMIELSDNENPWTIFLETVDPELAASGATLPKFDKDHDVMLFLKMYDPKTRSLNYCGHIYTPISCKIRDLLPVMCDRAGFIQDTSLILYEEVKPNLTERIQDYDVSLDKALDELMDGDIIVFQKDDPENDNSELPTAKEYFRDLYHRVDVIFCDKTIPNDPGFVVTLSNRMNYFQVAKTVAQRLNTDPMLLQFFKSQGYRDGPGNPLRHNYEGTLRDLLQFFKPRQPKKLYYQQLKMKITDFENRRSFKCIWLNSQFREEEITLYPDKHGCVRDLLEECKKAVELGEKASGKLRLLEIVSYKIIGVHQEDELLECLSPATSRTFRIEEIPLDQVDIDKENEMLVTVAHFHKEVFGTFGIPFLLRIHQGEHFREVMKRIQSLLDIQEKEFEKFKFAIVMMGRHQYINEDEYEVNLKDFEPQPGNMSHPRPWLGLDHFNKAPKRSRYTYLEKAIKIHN
In words: USP7-mediated ubiquitin-rhodamine cleavage assay. Particulars: recombinant full-length USP7 62 pM, ubiquitin-rhodamine 100 nM, 1 hour reaction at room temperature. In kind it is biochemical. Put shortly:
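Full-length recombinant USP7 (62 pM) in 20 mM HEPES pH 7.3, 150 mM NaCl, 1 mM TCEP, 125 μg/ml BSA, 1% DMSO, preincubated with compound 30 min at RT. Ubiquitin-rhodamine (100 nM final) cleaved 1 h at RT in the dark, stopped with acetic acid; rhodamine fluorescence read, IC50 by 4-parameter nonlinear fit.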

Where [1] appears, read: 30-minute pre-incubation, read-out: Potency (USP7 IC50).
Where [2] appears, read: 30-minute incubation with compound, read-out: Potency: USP7 IC50.
The mark [3] stands for this setting: 30-minute incubation, read-out: Potency (USP7 IC50).

As for `Cc1cc(Cl)cc(-c2ccnc3cc(CN4C(=O)CCC4=O)sc23)c1OC1CC(C)(N)C1` (stereo not drawn) [Example 444, 1-[[7-[2-(3-amino-3-methyl-cyclobutoxy)-5-chloro-3-methyl-phenyl]thieno[3,2-b]pyridin-2-yl]methyl]pyrrolidine-2,5-dione dihydrochloride], the IC50 (commonly the concentration needed to halve the response being measured) under setting [1] was less than 1 µM.

With `Cc1cc(C#N)cc(-c2ncnc3cc(CN4C(=O)CCC4=O)sc23)c1O[C@@H]1CNC[C@@H]1F` [Example 109, 3-(6-((2,5-Dioxopyrrolidin-1-yl)methyl)thieno[3,2-d]pyrimidin-4-yl)-4-(((3R,4S)-4-fluoropyrrolidin-3-yl)oxy)-5-methylbenzonitrile], the concentration for half-maximal inhibition (IC50) under setting [2] was less than 1 µM.

Turning to `Cc1cc(F)cc(-c2ccnc3cc(CO)sc23)c1O[C@H]1CCCNC1` [Example 238, (S)-(7-(5-Fluoro-3-methyl-2-(piperidin-3-yloxy)phenyl)thieno[3,2-b]pyridin-2-yl)methanol], the IC50 under setting [2] lay within 10 to 30 µM.

Turning to `O=C1CCC(=O)N1Cc1cc2nccc(-c3cc(Cl)cc(Br)c3O[C@@H]3CNC[C@@H]3F)c2s1` [Example 102, 1-((7-(3-Bromo-5-chloro-2-(((3R,4S)-4-fluoropyrrolidin-3-yl)oxy)phenyl)thieno[3,2-b]pyridin-2-yl)methyl)pyrrolidine-2,5-dione], under setting [2], the 50% inhibitory concentration (IC50) was less than 1 µM.

Regarding `Cc1cc(Cl)cc(-c2ncnc3cc(Cn4c(=O)ccn(CC(F)(F)F)c4=O)sc23)c1O[C@@H]1CCNC[C@H]1C` [Example 561, 3-[[4-[5-chloro-3-methyl-2-[[(3R,4R)-3-methyl-4-piperidyl]oxy]phenyl]thieno[3,2-d]pyrimidin-6-yl]methyl]-1-(2,2,2-trifluoroethyl)pyrimidine-2,4-dione], the IC50 under setting [1] is less than 1 µM.

`Cc1cc(Cl)cc(-c2ncnc3cc(CN4C(=O)C5C(C4=O)C5(C)C)sc23)c1O[C@@H]1CNCC(C)(C)C1` (stereo partly drawn) [Example 361, 3-[[4-[5-chloro-2-[[(3S)-5,5-dimethyl-3-piperidyl]oxy]-3-methyl-phenyl]thieno[3,2-d]pyrimidin-6-yl]methyl]-6,6-dimethyl-3-azabicyclo[3.1.0]hexane-2,4-dione]: the IC50 under setting [2] is less than 1 µM.

In the case of `CCC(O)c1cc2nccc(-c3cc(Cl)cc(C)c3O[C@@H]3CCNC3)c2s1` (stereo partly drawn) [Example 51, 1-(7-(5-Chloro-3-methyl-2-(((R)-pyrrolidin-3-yl)oxy)phenyl)thieno[3,2-b]pyridin-2-yl)propan-1-ol], the 50% inhibitory concentration (IC50) under setting [2] fell in the range of 1 to 10 µM.

Consider `Cc1cc(Cl)cc(-c2ccnc3cc(Cn4c(=O)ccn(C)c4=O)sc23)c1OC1C(C)(C)C(N)C1(C)C` (stereo not drawn) [Example 538, 3-[[7-[2-(3-amino-2,2,4,4-tetramethyl-cyclobutoxy)-5-chloro-3-methyl-phenyl]thieno[3,2-b]pyridin-2-yl]methyl]-1-methyl-pyrimidine-2,4-dione], for which, under setting [1], the IC50 was less than 1 µM.

With `CCC(O)c1cc2nccc(-c3cc(Cl)cc(C)c3O[C@@H]3CN[C@H](C(C)(C)O)C3)c2s1` (stereo partly drawn) [Example 86, 1-(7-(5-Chloro-2-(((3S,5S)-5-(2-hydroxypropan-2-yl)pyrrolidin-3-yl)oxy)-3-methylphenyl)thieno[3,2-b]pyridin-2-yl)propan-1-ol], the IC50 under setting [2] lay in the range of 1 to 10 µM.

As to `Cc1cc(Cl)cc(-c2ccnc3ccsc23)c1OC1CCC(=O)NC1` (stereo not drawn) [Example 198, 5-(4-Chloro-2-methyl-6-(thieno[3,2-b]pyridin-7-yl)phenoxy)piperidin-2-one], the IC50 under setting [2] is more than 30 µM.

Regarding `Cc1cc(Cl)cc(-c2ccnc3cc(Cn4c(=O)ccn(CC(F)(F)F)c4=O)sc23)c1OC1(C)CCCNC1` (stereo not drawn) [Example 639, 3-[[7-[5-chloro-3-methyl-2-[(3-methyl-3-piperidyl)oxy]phenyl]thieno[3,2-b]pyridin-2-yl]methyl]-1-(2,2,2-trifluoroethyl)pyrimidine-2,4-dione], the IC50 under setting [1] is less than 1 µM.

On to `Cc1cc(Cl)cc(-c2ccnc3cc(CN4C(=O)CCC4=O)sc23)c1OC1CC(N)C1` (stereo not drawn) [Example 437, 1-[[7-[2-(3-aminocyclobutyoxy)-5-chloro-3-methyl-phenyl]thieno[3,2-b]pyridin-2-yl]methyl]pyrrolidine-2,5-dione; 2,2,2-trifluoroacetic acid], for which the IC50 under setting [1] is less than 1 µM.

Consider `Cc1cc(Cl)cc(-c2ccnc3cc(CN4C(=O)CCC4=O)sc23)c1O[C@@H]1CCNC[C@@H]1F` [Example 209, 1-((7-(5-Chloro-2-(((3S,4R)-3-fluoropiperidin-4-yl)oxy)-3-methylphenyl)thieno[3,2-b]pyridin-2-yl)methyl)pyrrolidine-2,5-dione], for which the 50% inhibitory concentration (IC50) under setting [2] is less than 1 µM.

Consider `Cc1cc(Cl)cc(-c2ccnc3cc(Cn4c(=O)ccn(CC(F)(F)F)c4=O)sc23)c1OC1CC2(COC2)C1` [Example 679, 3-[[7-[5-chloro-3-methyl-2-(2-oxaspiro[3.3]heptan-6-yloxy)phenyl]thieno[3,2-b]pyridin-2-yl]methyl]-1-(2,2,2-trifluoroethyl)pyrimidine-2,4-dione], for which the IC50 under setting [3] was less than 1 µM.

In the case of `Cc1cc(Cl)cc(-c2ncnc3cc(CN4C(=O)c5ccccc5C4=O)sc23)c1OC1CCNCC1` [Example 202, 2-((4-(5-Chloro-3-methyl-2-(piperidin-4-yloxy)phenyl)thieno[3,2-d]pyrimidin-6-yl)methyl)isoindoline-1,3-dione], the IC50 under setting [2] was less than 1 µM.

With `Cc1cc(Cl)cc(-c2ncnc3cc(CN4C(=O)C5C(C4=O)C5(C)C)sc23)c1O[C@H]1CCCN[C@@H]1C` (stereo partly drawn) [Example 360, 3-[[4-[5-chloro-3-methyl-2-[[(2R,3S)-2-methyl-3-piperidyl]oxy]phenyl]thieno[3,2-d]pyrimidin-6-yl]methyl]-6,6-dimethyl-3-azabicyclo[3.1.0]hexane-2,4-dione], under setting [2], the IC50 is less than 1 µM.

On to `CCC(O)c1cc2nccc(-c3cc(C#N)cc(C)c3OCC3(C)CNC3)c2s1` (stereo not drawn) [Example 31, 3-(2-(1-Hydroxypropyl)thieno[3,2-b]pyridin-7-yl)-5-methyl-4-((3-methylazetidin-3-yl)methoxy)benzonitrile], for which the IC50 under setting [2] was in the range of 1 to 10 µM.

For the compound `Cc1cc(Cl)cc(-c2ccnc3cc(Cn4c(=O)ccn(CC(F)(F)F)c4=O)sc23)c1OC1CC(N2CCC(F)C2)C1` (stereo not drawn) [Example 685, 3-[[7-[5-chloro-2-[3-(3-fluoropyrrolidin-1-yl)cyclobutoxy]-3-methyl-phenyl]thieno[3,2-b]pyridin-2-yl]methyl]-1-(2,2,2-trifluoroethyl)pyrimidine-2,4-dione; 2,2,2-trifluoroacetic acid], under setting [3], the IC50 is less than 1 µM.

For the compound `Cc1cc(Cl)cc(-c2ccnc3cc(Cn4c(=O)ccn(CC(F)(F)F)c4=O)sc23)c1O[C@H]1C[C@H](N2CCOCC2)C1` [Example 278, 3-((7-(5-Chloro-3-methyl-2-((1r,3r)-3-morpholinocyclobutoxy)phenyl)thieno[3,2-b]pyridin-2-yl)methyl)-1-(2,2,2-trifluoroethyl)pyrimidine-2,4(1H,3H)-dione], the IC50 under setting [2] is less than 1 µM.

On to `Cc1cc(Cl)cc(-c2ccnc3cc(Cn4c(=O)ccn(CC(F)(F)F)c4=O)sc23)c1O[C@@H]1CCNC[C@@]1(C)F` [Example 276, 3-((7-(5-Chloro-2-(((3R,4R)-3-fluoro-3-methylpiperidin-4-yl)oxy)-3-methylphenyl)thieno[3,2-b]pyridin-2-yl)methyl)-1-(2,2,2-trifluoroethyl)pyrimidine-2,4(1H,3H)-dione], for which the IC50 under setting [2] is less than 1 µM.

In the case of `Cc1cc(Cl)cc(-c2ccnc3cc(CO)sc23)c1O[C@@H]1C[C@H]2CC[C@@H](C1)N2` [Example 192, (7-(2-(((1R,3S,5S)-8-Azabicyclo[3.2.1]octan-3-yl)oxy)-5-chloro-3-methylphenyl)thieno[3,2-b]pyridin-2-yl)methanol], under setting [2], the IC50 was in the range of 1 to 10 µM.

As to `Cc1cc(Cl)cc(-c2ccnc3cc(CN4C(=O)CCC4=O)sc23)c1OC1CCNC1C` (stereo not drawn) [Example 118, 1-((7-(5-Chloro-3-methyl-2-((2-methylpyrrolidin-3-yl)oxy)phenyl)thieno[3,2-b]pyridin-2-yl)methyl)pyrrolidine-2,5-dione], under setting [2], the 50% inhibitory concentration (IC50) is less than 1 µM.

As to `CCC(O)c1cc2nccc(-c3cc(Cl)cc(C)c3OCC3(F)CNC3)c2s1` (stereo not drawn) [Example 35, 1-(7-(5-Chloro-2-((3-fluoroazetidin-3-yl)methoxy)-3-methylphenyl)thieno[3,2-b]pyridin-2-yl)propan-1-ol], the half-maximal inhibitory concentration (IC50) under setting [2] lay in the range of 1 to 10 µM.

For `Cc1cc(Cl)cc(-c2ncnc3cc(Cn4c(=O)c(F)cn(CC(F)(F)F)c4=O)sc23)c1O[C@H]1CCCNC1` [Example 556, 3-[[4-[5-chloro-3-methyl-2-[[(3S)-3-piperidyl]oxy]phenyl]thieno[3,2-d]pyrimidin-6-yl]methyl]-5-fluoro-1-(2,2,2-trifluoroethyl)pyrimidine-2,4-dione], the IC50 under setting [1] is less than 1 µM.

With `Cc1cc(Cl)cc(-c2ncnc3cc(Cn4c(=O)ccn(CC(F)(F)F)c4=O)sc23)c1O[C@H]1CCCNC1` [Example 517], under setting [1], the IC50 is less than 1 µM.

Take `Cc1cc(Cl)cc(-c2ncnc3cc(Cn4c(=O)ccn(CC(F)(F)F)c4=O)sc23)c1O[C@H]1CC[C@H](C)NC1` [Example 562, 3-[[4-[5-chloro-3-methyl-2-[[(3S,6S)-6-methyl-3-piperidyl]oxy]phenyl]thieno[3,2-d]pyrimidin-6-yl]methyl]-1-(2,2,2-trifluoroethyl)pyrimidine-2,4-dione; 2,2,2-trifluoroacetic acid]: the IC50 under setting [1] is less than 1 µM.

On to `Cc1cc(Cl)cc(-c2ncnc3cc(CN4C(=O)C5CC5C4=O)sc23)c1O[C@@H]1CNC[C@@H]1F` (stereo partly drawn) [Example 351, 3-[[4-[5-chloro-2-[(3R,4S)-4-fluoropyrrolidin-3-yl]oxy-3-methyl-phenyl]thieno[3,2-d]pyrimidin-6-yl]methyl]-3-azabicyclo[3.1.0]hexane-2,4-dione dihydrochloride], for which the IC50 under setting [2] is less than 1 µM.
